The molecules below were run against Plasminogen activator inhibitor 1 (Homo sapiens, UniProt P05121) (assay: Inhibitory concentration required against Plasminogen activator inhibitor 1.).
Chain of Plasminogen activator inhibitor 1 (P05121 whole entry): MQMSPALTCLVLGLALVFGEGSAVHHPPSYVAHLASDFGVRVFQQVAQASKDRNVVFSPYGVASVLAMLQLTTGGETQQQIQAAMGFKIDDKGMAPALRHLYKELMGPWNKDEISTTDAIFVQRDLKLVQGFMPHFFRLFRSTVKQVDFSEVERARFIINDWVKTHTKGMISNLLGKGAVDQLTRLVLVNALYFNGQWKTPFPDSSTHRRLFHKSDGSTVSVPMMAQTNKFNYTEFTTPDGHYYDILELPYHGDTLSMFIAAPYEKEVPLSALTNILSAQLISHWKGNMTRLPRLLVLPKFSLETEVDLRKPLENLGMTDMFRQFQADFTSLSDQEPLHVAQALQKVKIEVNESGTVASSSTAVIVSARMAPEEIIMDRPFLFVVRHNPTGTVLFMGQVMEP

Which IC50 does the source give for O=C(Nc1ccc(/C=C2\NC(=O)c3ccccc3C2=O)cc1)c1cccs1 here?
Its IC50 is 4 µM.

How did the IC50 turn out when COc1cccc(-c2[nH]c(=O)c3ccccc3c2O)c1 was run?
Its IC50 is 9.8 µM.

Which IC50 does the source give for Oc1nc(-c2ccc(Cl)cc2)c(O)c2ccccc12 here?
Its IC50 is 23.6 µM.

O=c1[nH]/c(=C\c2nccs2)c(=O)[nH]/c1=C\c1ccc(OCCCc2cccnc2)cc1 was tested. Which IC50 did it give?
The IC50 was 0.6 µM.

With O=C(Nc1cc(C(F)(F)F)cc(C(F)(F)F)c1)c1nc(O)c2ccccc2c1O as the molecule, how does the IC50 read?
Its IC50 is 13.7 µM.

How did the IC50 turn out when O=C(Nc1ccc(/C=C2\NC(=O)c3ccccc3C2=O)cc1)c1ccccc1 was run?
Its IC50 is 8.6 µM.

How did the IC50 turn out when O=C(Nc1ccc(Oc2ccc(OC(F)(F)F)cc2)cc1)c1[nH]c(=O)c2ccccc2c1O was run?
Its IC50 is 1 µM.

How did the IC50 turn out when O=C(Nc1ccc(/C=C2\NC(=O)c3ccccc3C2=O)cc1)c1ccco1 was run?
The IC50 was 1.9 µM.

O=C1N/C(=C\c2ccc(OCCCc3cccnc3)cc2)C(=O)c2ccccc21 was tested. Which IC50 did it give?
Its IC50 is 18 µM.

Oc1nc(-c2ccccc2)c(O)c2ccccc12 was tested. Which IC50 did it give?
Its IC50 is 50 µM.

With O=c1[nH]/c(=C\c2ccc(OCCCc3cccnc3)cc2)c(=O)[nH]/c1=C\c1ccccc1 as the molecule, how does the IC50 read?
The IC50 was 1 µM.

Which IC50 does the source give for O=c1[nH]c(-c2ccc(F)cc2)c(O)c2ccccc12 here?
Its IC50 is 39.5 µM.

O=c1[nH]/c(=C\c2ccccn2)c(=O)[nH]/c1=C\c1ccc(OCCCc2cccnc2)cc1 was tested. Which IC50 did it give?
Its IC50 is 0.3 µM.

O=c1[nH]/c(=C\c2ccc(OCCCc3cccnc3)cn2)c(=O)[nH]/c1=C\c1ccccc1 was tested. Which IC50 did it give?
Its IC50 is over 50 µM.

Cn1c(=O)/c(=C/c2ccc(OCCCc3cccnc3)cc2)[nH]c(=O)/c1=C/c1ccccc1 was tested. Which IC50 did it give?
Its IC50 is 12 µM.

How did the IC50 turn out when O=C(Nc1ccc(Cl)cc1)c1nc(O)c2ccccc2c1O was run?
The IC50 was 24 µM.

With O=C(Nc1ccc(Cl)c(Cl)c1)c1nc(O)c2ccccc2c1O as the molecule, how does the IC50 read?
The IC50 was 14 µM.

From ChEMBL document CHEMBL1134892, “Novel inhibitors of plasminogen activator inhibitor-1: development of new templates from diketopiperazines” (Bioorg Med Chem Lett, 2002)
